SMILES strings stand for the structures. Values after ≈ are worked out from the molar mass of the structure shown.

In test [1] the test system is M. tuberculosis RIF resistant (2004/0499). The test can be described thus: microbe, parasite or virus in culture. As to conditions: Mycobacterium tuberculosis. The test is classed as cell-based.
Test [2] relates to M. tuberculosis INH resistant (2003/1762). The test can be described thus: microbe, parasite or virus in culture. Format: cell-based. As to conditions: Mycobacterium tuberculosis.

With `CC1(C)C=Cc2c(ccc3oc4ccccc4c23)O1` [Compound 9, 3,3-dimethyl-3H-benzofuro[3,2-f][1]benzopyran], the MIC99 in test [1] and in test [2] was 5 µg/mL (≈ 20 µM) in each case.
As to `CC1(C)CCc2c(ccc3oc4ccccc4c23)O1` [Compound 16, 1,2-dihydro-3,3-dimethyl-3H-benzofuro[3,2-f][1]benzopyran], the MIC99 in test [1] and in test [2] was 1 µg/mL (≈ 3.96 µM) each time.
Take `NNC(=O)c1ccncc1` [INH, isoniazid, reference compound]: the MIC99 in test [1] amounted to 0.1 µg/mL (≈ 0.729 µM); in test [2], 5 µg/mL (≈ 36.5 µM).
